Source: US11213512B2, “Bis-amino acid based compound and use thereof” (THE CURATORS OF THE UNIVERSITY OF MISSOURI, priority 2016, dated 2022)
Like-named read-outs stand apart in the source and are kept apart here.

Experiments:
Tet^R E. coli [1] = assay: MIC, CLSI/NCCLS broth microdilution; assay type: cell-based, Escherichia coli; conditions: 24 h; for MIC: Escherichia coli, read-out: Minimal Inhibitory Concentration (MIC) E. coli Tet^R; for Minimal Inhibitory Concentration (MIC) E. coli Tet^R: >80% growth inhibition, 37° C., substance alone
Experimental: (§1) Two different strains of E. coli (Gram-negative) were used. The laboratory strain of E. coli, K-12 (ATCC Accession No. 700926), was used for preliminary MIC determinations. The tetracycline resistant strain of E. coli (Tet^R) was prepared by transforming competent JM109 E. coli (Promega) with the pBR322 plasmid (Carolina Biologicals) using the manufacturers protocol. This plasmid contains two resistance genes: the tetA gene expresses the tetracycline resistance TetA efflux pump (Sapunaric and Levy, Microbiol. 2005, 151, 2315-2322) and the amp^R gene expresses a β-lactamase enzyme (Bolivar, et al; Gene 1977, 2, 95-113) that cleaves the four membered ring of penicillin derivatives. The resulting E. coli, which we designate Tet^R E. coli, is both tetracycline and ampicillin resistant. The TetA efflux pump belongs to the major facilitator superfamily (MFS), spans the cytoplasmic membrane, and transports tetracycline from the cell cytoplasm to the periplasmic space (Thanassi, et al., J. Bacteriol. 1995, 177, 998-1007). This active efflux utilizes the proton gradient as an energy source (Levy, Antimicrob. Agents Chemother. 1992, 36, 695-703). One Gram-positive strain, S. aureus (ATCC Accession No. 29213), used for MIC study expresses the MFS type NorA efflux pump and is methicillin sensitive. MFS type efflux pumps are clinically relevant for resistance in both Gram-positive and Gram-negative bacteria (Sun, et al., Biochem. Biophys. Res. Commun. 2014, 453, 254-267). A Staphylococcus aureus 1199B strain that overexpresses the NorA efflux pump was also used to conduct checkerboard experiments (see, Example 8 below). This strain of S. aureus 1199B is resistant to both norfloxacin and ethidium bromide.
(§2) K-12 E. coli and S. aureus were acquired from ATCC. The S. aureus strain was used in the BSL-2 facility. K-12 E. coli was grown in L. B. Miller media (Sigma-Aldrich) and S. aureus was grown in cation adjusted MHII media (Sigma-Aldrich). Tet^R E. coli was grown in L. B. Miller media containing 100 μg/mL Ampicillin.
(§3) MIC experiments were performed as described in the Clinical and Laboratory Standards Institute (CLSI) standard microdilution protocols. Bacteria was grown overnight from one CFU in media without antibiotics. Tet^R E. coli was grown in media containing 100 μg/mL Ampicillin. On the day of experiment, bacteria were knocked back to O.D. 600 nm=0.550 in the same media. These exponential phase bacteria were then diluted in antibiotics-free media to get […]. In a 96-well plate either L. B. Miller or MHII media was added followed by serially diluted compounds 1-11, tetracycline, or ampicillin. All the tryptophan based compounds were dissolved in DMSO and the final concentration of DMSO in each well was kept constant at 0.5% (v/v).
(§4) For the combination experiments, first, the BT or control was added to the media in the well followed by the antibiotics. The contents of the well were mixed before adding 20 μL of bacteria to get 4×10^5 CFU/mL per well. The plates were incubated at 37° C., 200 RPM for 24 hours before collecting results on the Biotek Cytation 3 plate reader. No more than three plates were stacked on top of each other at a time. Optical density of the wells was determined at λ=600 nm. Cells alone were considered as 0% inhibition and media alone was considered as 100% inhibition. Any inhibition greater than 80% was considered as the MIC. The results were reproduced three times before reporting.
(§5) All minimum inhibitory concentration (MIC) values for compounds 1-11 were determined according to the methods prescribed by the National Committee for Clinical Laboratory Standards (NCCLS, Methods for Dilution Antimicrobial Susceptibility Tests for Bacteria that grow aerobically; National Committee for Clinical Laboratory Standards 2000, 5th Edition, M7-A5). […]

E. coli K12 = assay: MIC, CLSI/NCCLS broth microdilution; assay type: cell-based, Escherichia coli; conditions: read-out: Minimal Inhibitory Concentration (MIC) E. coli K12
Experimental: as §1, §2, §3, §4, §5

[2] = test system: S. aureus (ATCC Accession No. 29213); assay: MIC, CLSI/NCCLS broth microdilution; assay type: cell-based, Staphylococcus aureus; conditions: read-out: Minimal Inhibitory Concentration (MIC) S. aureus
Experimental: as §1, §2, §3, §4, §5

Tet^R E. coli [3] = assay: Membrane permeability and viability, confocal microscopy (propidium iodide / fluorescein diacetate); assay type: cell-based, Escherichia coli; conditions: 0.1% (~1,670 μM) control detergent
Experimental: To test the membrane permeability of the Tet^R E. coli, the bacteria was first grown overnight from one CFU in media containing 100 μg/mL Ampicillin at 37° C. and 200 RPM. Tet^R E. coli was then knocked back to O.D. 600 nm=0.550 before use. In a sterile test tube, cells were added followed by either compounds 2 or 10 at half-MIC concentrations and incubated at 37° C. and 200 RPM. The concentration of DMSO was kept constant at 0.5% —by volume in each case. After 30 minutes of incubation, the cells were washed by centrifugation at 3000×g for 5 minutes and re-suspended in sterile phosphate buffered saline (PBS). Propidium iodide (30 μM, Thermo-Fischer) and fluorescein diacetate (60 μM, Sigma-Aldrich) were added to the Tet^R E. coli cells in the PBS, mixed by vortexing and incubated at 37° C. and 200 RPM. After 30 minutes, the cells were washed again by centrifugation at 3000×g for 5 minutes. The pellet was suspended in a fresh PBS, loaded onto a clean glass slide, covered with a cover slip and observed under Zeiss LSM 700 confocal microscope.
The study was designed to assess the membrane permeability and viability of the E. coli in the presence of BTs 2 and 10. The three panels in FIG. 6 show the bright field (BF) microscopic images (top row), the result when fluorescein diacetate (FDA) is present (middle row), and the presence of propidium iodide (PI, bottom row), if any. […] When it does, it intercalates in DNA, which leads to enhanced fluorescence. Fluorescein diacetate is incorporated into the cells during growth, but is not fluorescent. If the organism is or remains vital, the diester will be hydrolyzed and fluorescein will be observed by its fluorescence emission.
Controls for the permeability/viability assay were included for E. coli in the presence of a final concentration of 0.5% (v/v) DMSO (the vehicle for administration of BTs), and a final concentration of 0.1% […] Triton X-100. […] Thus, less than or equal to 0.5% DMSO (v/v) was always used; the control is shown in the second column. Triton X-100 is a potent detergent, which was used at 0.1% or ˜1,670 μM.

HEK-293 cells = assay: Mammalian cell permeability and vitality, confocal microscopy (propidium iodide / fluorescein diacetate); assay type: cell-based, human
Experimental: To test the permeability of HEK-293 cells, the cells were cultured in growth medium as described above. HEK-293 (90% confluent) were then seeded in a 96-well plate to get 30,000 cells/well. After 24 hours of incubation at 37° C. and 5% CO2, the spent media was replaced with media (DMEM and 10% FBS) containing compound 2 at either 20 μM or 80 μM. […] Triton X-100 at 0.1%—by volume (1670 μM) and DMSO 0.5% (v/v) were also used as controls. After 2 hours of incubation, spent media was replaced with PBS containing propidium iodide (30 μM) and fluorescein diacetate (60 μM) and incubated at 37° C. and 5% CO2. After 2 hour of incubation, the spend media was replaced with fresh PBS and the cells were observed under Zeiss LSM 700 confocal microscope. The images were reported without any alterations. The gain and the intensity in all the images were kept constant.
A compound that inhibits bacterial growth and penetrates into the microbe's cytosol may also penetrate into mammalian cells. A similar microscopic study was conducted with the human embryonic kidney (HEK-293) cell line. In this case, only compound 2 was studied. […] The microscopic study was therefore conducted at 20 μM, a value well below any inhibitory concentration, and at 80 μM, a concentration above all three MIC values. The 80 μM concentration was used to confirm the […] of 2 and to establish the lack of serum inhibition.

[4] = Staphylococcus aureus, ATCC29213, 24 h
[5] = >80% growth inhibition, 24 h, 37° C.

Compound: Cl.Cl.N[C@@H](Cc1c[nH]c2ccccc12)C(=O)NCCCCCCNC(=O)[C@@H](N)Cc1c[nH]c2ccccc12 [Compound 9, (2S,2′S)-1,1′-(Hexane-1,6-diylbis(azanediyl))bis(3-(1H-indol-3-yl)-1-oxopropan-2-aminium) chloride]
- MIC (Tet^R E. coli [1]): 128 µM
- MIC (E. coli K12; Escherichia coli, K12, 24 h): > 128 µM
- melting point: 193 °C (dec.)
- MIC [2, 4]: > 128 µM

Compound: Triton X-100 [reference compound]
- viability (fluorescein diacetate fluorescence) (Tet^R E. coli [3]): essentially all the cells were killed
- propidium iodide penetration (membrane permeability) (HEK-293 cells): strong signal from propidium iodide

Compound: CN(C)[C@@H]1C(O)=C(C(N)=O)C(=O)[C@@]2(O)C(O)=C3C(=O)c4c(O)cccc4[C@@](C)(O)[C@H]3C[C@@H]12 [tetracycline, reference compound]
- Minimal Inhibitory Concentration (MIC) E. coli Tet^R (Tet^R E. coli [1]): 900 µM
- MIC (Tet^R E. coli [1]): 900 ± 100 µM
- MIC (E. coli K12; Escherichia coli, K12, >80% growth inhibition, 24 h, 37° C.): ~3 µM

Compound: Cl.Cl.N[C@H](Cc1c[nH]c2ccccc12)C(=O)NCCCCNC(=O)[C@@H](N)Cc1c[nH]c2ccccc12 [Compound 8, (S)-1-((4-((R)-2-Ammonio-3-(1H-indol-3-yl)propanamido)butyl)amino)-3-(1H-indol-3-yl)-1-oxopropan-2-aminium chloride]
- MIC (Tet^R E. coli [1]): > 128 µM
- MIC (E. coli K12; Escherichia coli, K12, 24 h): > 128 µM
- melting point: 204 °C (dec.)
- MIC [2, 4]: > 128 µM

Compound: O=C(CCc1c[nH]c2ccccc12)Nc1cccc(NC(=O)CCc2c[nH]c3ccccc23)c1 [Compound 4, N,N′-(1,3-Phenylene)bis(3-(1H-indol-3-yl)propanamide)]
- MIC (Tet^R E. coli [1]): > 128 µM
- MIC (E. coli K12; Escherichia coli, K12, 24 h): > 128 µM
- melting point: 154 to 156 °C
- MIC [2, 4]: > 128 µM

Compound: CC1(C)S[C@@H]2[C@H](NC(=O)[C@H](N)c3ccccc3)C(=O)N2[C@H]1C(=O)O [ampicillin, reference compound]
- MIC (Tet^R E. coli [1]): > 1000 µM

Compound: Cl.N[C@@H](Cc1c[nH]c2ccccc12)C(=O)Nc1ccccc1 [Compound 11, (S)-3-(1H-Indol-3-yl)-1-oxo-1-(phenylamino)propan-2-aminium chloride]
- Minimal Inhibitory Concentration (MIC) E. coli Tet^R (Tet^R E. coli [1]): >128 µM
- MIC (Tet^R E. coli [1]): > 128 µM
- MIC (E. coli K12; [5]): >128 µM
- MIC (E. coli K12; Escherichia coli, K12, 24 h): > 128 µM
- MIC [2, 5]: >128 µM
- MIC [2, 4]: > 128 µM

Compound: Cl.Cl.NCC(=O)Nc1cccc(NC(=O)CN)c1 [Compound 1, 2,2′-(1,3-Phenylenebis(azanediyl))bis(2-oxoethanaminium) chloride]
- Minimal Inhibitory Concentration (MIC) E. coli Tet^R (Tet^R E. coli [1]): >128 µM
- MIC (Tet^R E. coli [1]): > 128 µM
- MIC (E. coli K12; [5]): >128 µM
- MIC (E. coli K12; Escherichia coli, K12, 24 h): > 128 µM
- melting point: 310 °C (dec.)
- MIC [2, 5]: >128 µM
- MIC [2, 4]: > 128 µM
